Earlier results, collected in patent US20070275075A1, “Ezetimibe compositions” (priority 2006, published 2007).

Assays:
[1] = not given; remark: listed apart in the source

## O=C1[C@H](CC[C@H](O)c2ccc(F)cc2)[C@@H](c2ccc(O)cc2)N1c1ccc(F)cc1 [Ezetimibe, 1-(4-fluorophenyl)-3(R)-[3-(4-fluorophenyl)-3(S)-hydroxypropyl]-4(S)-(4-hydroxyphenyl)-2-azetidinone]
other
  stability at ambient temperature: stable
[1]; ethanol, methanol, acetone
  solubility in ethanol, methanol, and acetone: freely to very soluble
[1]; water
  solubility in water: practically insoluble
